What was measured:
[1] = clinical trial, reported in background; cited from earlier work
[2] = Fatty acid composition of oils before and after heating (air incorporated by stirring) by Gas Liquid Chromatography; format: physicochemical; conditions: from the fish oil source, heated with air incorporated
Description: The heat stability of the highly unsaturated and easily oxidisable EPA/DHA in the oil blend of the invention, EPA/DHA from available sources of enriched fish oil was blended with groundnut oil in various proportions and the stability of the formulations tested is importantly to further confirm the unexpected and synergistic heat stability achieved by the oil formulation of the invention incorporating the EPA/DHA, oil blends with varying amount of active benefit agent EPA/DHA heated from ambient to upto 220 deg.C were tested. To maximize the process of deterioration, apart from heating at 180 deg.C, 200 deg.C and 220 deg. C., air was incorporated during heating by using a magnetic stirrer.

| SMILES | Effect on triglyceride levels [1] | Heat stability of the fatty acid [2] |
| --- | --- | --- |
| CC/C=C\C/C=C\C/C=C\CCCCCCCC(=O)O [ALNA, Alpha linolenic acid] | not effective to reduce triglyceride levels |  |
| CC/C=C\C/C=C\C/C=C\C/C=C\C/C=C\C/C=C\CCC(=O)O [DHA, Docosa Hexaenoic Acid] |  | heat stable even at temperatures of up to 220 deg. C. |
| CC/C=C\C/C=C\C/C=C\C/C=C\C/C=C\CCCC(=O)O [EPA, Eicosa Pentaenoic Acid] |  | heat stable even at temperatures of up to 220 deg. C. |
